Test results as given in patent US12461092B2, “Screening method for APP cleavage activity-controlling substances of ADAMTS4” (SHIMADZU CORPORATION, priority 2019, dated 2025).

Experiments:
[1] = system: A549-wild type (wt) cells; experiment: Aβ-related peptide production in culture supernatant of A549-wt cells by IP-MS (Example 1); format: cell-based, human; conditions: 25 μM, 96 hours, compared with DMSO control
Experimental: After the antigen antibody reaction, the antibody immobilized beads were washed with a first washing buffer [washed once with 100 μL of the first washing buffer (0.1% DDM, 0.1% NTM, 50 mM Tris-HCl (pH 7.4) and 150 mM NaCl), and then once with 50 μL of a 50 mM ammonium acetate buffer]. Thereafter, the Aβ-related peptide captured by the antibody immobilized beads was eluted with a glycine buffer containing DDM (50 mM glycine buffer containing 0.1% of DDM, pH 2.8). To the thus obtained eluate, Tris buffer containing DDM [800 mM GlcNAc, 0.2% (w/v) DDM, 300 mM NaCl, and 300 mM Tris-HCl buffer (pH 7.4)] was added to restore the pH to neutral (pH 7.4). Thereafter, the neutral eluate was contacted with the antibody immobilized beads at 4° C. for 1 hour again to cause the antigen antibody reaction of the Aβ-related peptide. The resultant was washed with a second washing buffer [washed twice with 100 μL of the second washing buffer (0.1% DDM, 150 mM Tris-HCl (pH 7.4), and 150 mM NaCl), and once with 50 μL of a 50 mM ammonium acetate buffer], and then, the Aβ-related peptide captured by the antibody immobilized beads was eluted with an eluent (5 mM HCl, 0.1 mM methionine, and 70% (v/v) acetonitrile). In this manner, each eluate containing the Aβ-related peptide was obtained through two-stage IP operation. […]

A549-ADAMTS4 KO cells = experiment: Aβ-related peptide production in culture supernatant of A549-ADAMTS4 KO cells by IP-MS (Example 1); format: cell-based, human; conditions: 25 μM, 96 hours, compared with DMSO control
Experimental: In A549 cells, an influence on production of APP669-x caused by ADAMTS4 knockout using CRISPR/Cas9 (clustered regularly interspaced short palindromic repeats/CRISPR associated proteins) and guide RNA (gRNA), and a treatment with GM6001, a metalloprotease inhibitor, was evaluated. A549 cell is human adenocarcinomic alveolar basal epithelial cell. The gRNA was designed using CRISPR Search (https://www.sanger.ac.uk/htgt/wge/find_crisprs).
Vectors in which cDNAs respectively encoding paired gRNAs targeting ADAMTS4 were inserted respectively into vector px335 (Addgene 042335) expressing SpCas9 nickase and gRNA and retrovirus-derived vector pBabe Puro U6 BbsI (donated by Professor Dario Alessi, Dundee University) were constructed.
These vectors were transfected, and the resultant transfectants were subjected to selection with puromycin for monocloning. A genome was extracted from each monoclonal cell, and a genome fragment including a gene region targeted by gRNA was amplified by PCR to be subjected to sanger sequencing. Primers used for amplifying the genome fragment were as follows: […]
As a result of analysis of a plurality of monoclonal cells, it was presumed that ADAMTS4 gene region of A549 cell has three alleles. Then, a monoclonal cell respectively having deletion of 16 bp, 29 bp and 20 bp in the gene region of ADAMTS4 gene as shown in FIG. 2 was obtained. Since none of these is a multiple of 3, it is presumed that normal ADAMTS4 protein is not expressed. Therefore, it was regarded that this cell is A549 cell having endogenous ADAMTS4 knockout (KO) (A549-ADAMTS4 KO cell).
A metalloprotease inhibitor, GM6001 (25 μM), or dimethylsulfoxide (DMSO) used as a control was added to each of A549-ADAMTS4 KO cells and A549-wild type (wt) cells, and the resultant cells were incubated for 96 hours. Thereafter, a culture supernatant was collected, and stored at −80° C. until measurement.
(§1) An Aβ-related peptide contained in the culture supernatant was measured by IP-MS corresponding to a combination of immunoprecipitation (IP) and mass spectrometry (MS). In IP, antibody immobilized beads obtained by covalent binding of anti-Aβ antibody clone 6E10 (BioLegend) to Dynabeads Epoxy (Thermo Fisher Scientific) were used.
The cryopreserved culture supernatant was thawed, and 250 μL of a reaction liquid containing internal standard peptides [800 mM GlcNAc, 0.2/a (w/v) NTM, 0.2% (w/v) DDM, 300 mM NaCl, and 100 mM Tris-HCl buffer (pH 7.4)] was mixed with 250 μL of the culture supernatant. The thus obtained mixture was mixed with the antibody immobilized beads, followed by an antigen antibody reaction at 4° C. for 1 hour. As the internal standard peptides, 22 μM stable isotope labeled Aβ1-38 and 100 μM stable isotope labeled A31-15 were used. […]

[2] = system: human neuroblastoma BE(2)-C; experiment: Aβ-related peptide production in culture supernatant of BE(2)-C cells by IP-MS (Example 4); format: cell-based; conditions: for APP669 cleavage activity (on the N-terminal side): conclusion from BE(2)-C and A549 cells
Experimental: as §1
(§2) The cryopreserved culture supernatant was thawed, and 250 μL of a reaction liquid containing internal standard peptides [800 mM GlcNAc, 0.2/a (w/v) NTM, 0.2% (w/v) DDM, 300 mM NaCl, and 100 mM Tris-HCl buffer (pH 7.4)] was mixed with 250 μL of the culture supernatant. The thus obtained mixture was mixed with the antibody immobilized beads, followed by an antigen antibody reaction at 4° C. for 1 hour. As the internal standard peptides, 22 μM stable isotope labeled Aβ1-38 and 100 μM stable isotope labeled A31-15 were used.
(§3) After the antigen antibody reaction, the antibody immobilized beads were washed with a first washing buffer [washed once with 100 μL of the first washing buffer (0.1% DDM, 0.1% NTM, 50 mM Tris-HCl (pH 7.4) and 150 mM NaCl), and then once with 50 μL of a 50 mM ammonium acetate buffer]. Thereafter, the Aβ-related peptide captured by the antibody immobilized beads was eluted with a glycine buffer containing DDM (50 mM glycine buffer containing 0.1% of DDM, pH 2.8). To the thus obtained eluate, Tris buffer containing DDM [800 mM GlcNAc, 0.2% (w/v) DDM, 300 mM NaCl, and 300 mM Tris-HCl buffer (pH 7.4)] was added to restore the pH to neutral (pH 7.4). Thereafter, the neutral eluate was contacted with the antibody immobilized beads at 4° C. for 1 hour again to cause the antigen antibody reaction of the Aβ-related peptide. The resultant was washed with a second washing buffer [washed twice with 100 μL of the second washing buffer (0.1% DDM, 150 mM Tris-HCl (pH 7.4), and 150 mM NaCl), and once with 50 μL of a 50 mM ammonium acetate buffer], and then, the Aβ-related peptide captured by the antibody immobilized beads was eluted with an eluent (5 mM HCl, 0.1 mM methionine, and 70% (v/v) acetonitrile). In this manner, each eluate containing the Aβ-related peptide was obtained through two-stage IP operation.
(§4) As a matrix for linear TOF, α-cyano-4-hydroxycinnamic acid (CHCA) was used. A matrix solution was prepared by dissolving 1 mg of CHCA in 1 mL of 70% (v/v) acetonitrile. As a matrix additive, 0.4% (w/v) methylenediphosphonic acid (MDPNA) was used. A 1 mg/mL CHCA solution and 0.4% (w/v) MDPNA were mixed in equivalent amounts to obtain a matrix/matrix additive solution [0.5 mg/mL CHCA/0.2% (w/v) MDPNA].
(§5) Precedently, 0.5 μL of the matrix/matrix additive solution was added in a dropwise manner into respective wells of μFocus MALDI Plate™ 900 μm (Hudson Surface Technology, Inc., Fort Lee, NJ), and then dried.
(§6) Each eluate resulting from IP was added in a dropwise manner into 4 wells of the μFocus MALDI Plate™ 900 μm, and then dried.
(§7) Mass spectral data was obtained by linear TOF in the positive ion mode using AXIMA Performance (Shimadzu/KRATOS, Manchester, UK). An m/z value of linear TOF was indicated as an average mass of peaks. The m/z value was calibrated using, as external standards, human angiotensin II, human ACTH fragment 18-39, bovine insulin oxidized beta-chain, and bovine insulin.
(§8) In the mass spectrum, signal intensity of each Aβ-related peptide was normalized using an internal standard peptide. Thereafter, an average of four normalized intensities obtained from one sample was obtained, which was evaluated as a production amount of the Aβ-related peptide. When there were two or more data not reaching a lower detection limit (S/N<3), it was regarded as undetectable.
(§9) A metalloprotease inhibitor, 25 μM GM6001 (Cosmobio) or 10 μM INCB3619 (NPL 8), was caused to act on, or DMSO was added as a control to human neuroblastoma BE(2)-C and adenocarcinomic human alveolar basal epithelial cell A549, and the resultant cells were incubated for 96 hours. […]

[3] = system: adenocarcinomic human alveolar basal epithelial cell A549; experiment: Aβ-related peptide production in culture supernatant of A549 cells by IP-MS (Example 4); format: cell-based; conditions: 96 hours, DMSO control
Experimental: as §1, §2, §3, §4, §5, §6, §7, §8, §9

APP stable HEK cells = experiment: Aβ-related peptide production in culture supernatant of APP stable HEK cells by IP-MS (Example 4); format: cell-based, human; conditions: 25 μM
Experimental: As a matrix for linear TOF, α-cyano-4-hydroxycinnamic acid (CHCA) was used. A matrix solution was prepared by dissolving 1 mg of CHCA in 1 mL of 70% (v/v) acetonitrile. As a matrix additive, 0.4% (w/v) methylenediphosphonic acid (MDPNA) was used. […]
In the mass spectrum, signal intensity of each Aβ-related peptide was normalized using an internal standard peptide. Thereafter, an average of four normalized intensities obtained from one sample was obtained, which was evaluated as a production amount of the Aβ-related peptide. […]

[4] = BE(2)-C cells, 25 μM, 96 hours, DMSO control
[5] = BE(2)-C cells, 10 μM, 96 hours, DMSO control

With `CNC(=O)[C@H](Cc1c[nH]c2ccccc12)NC(=O)[C@@H](CC(=O)NO)CC(C)C` [GM6001] the “production amount of APP669-709 (Aβ(−3-38))” value [1] was “tended to be decreased to substantially a half”, the “production amount of APP669-711 (Aβ(−3-40))” value [1] was “tended to be decreased to substantially a half” and the “production amount of Aβ1-38” value [1] was “tended to be rather increased”. The “production amount of Aβ1-40” value [1] was “tended to be rather increased”, the “production amount of APP669-709 (Aβ(−3-38))” value (A549-ADAMTS4 KO cells) was “tended to be decreased to substantially a half” and the “production amount of APP669-711 (Aβ(−3-40))” value (A549-ADAMTS4 KO cells) was “tended to be decreased to substantially a half”. The “production amount of Aβ1-38” value (A549-ADAMTS4 KO cells) was “tended to be rather increased”, the “production amount of Aβ1-40” value (A549-ADAMTS4 KO cells) was “tended to be rather increased” and the “production amount of APP669-709 (Aβ(3-38))” value [2, 4] was “decreased”. The “production amount of APP669-711 (Aβ(−3-40))” value [2, 4] was “decreased”, the “production amount of Aβ1-38” value [2, 4] was “not decreased” and the “production amount of Aβ1-40” value [2, 4] was “not decreased”. The “APP669 cleavage activity (on the N-terminal side)” value ([2]; 25 μM) was “decreases”, the “production amount of APP669-709 (Aβ(3-38))” value ([3]; 25 μM) was “decreased” and the “production amount of APP669-711 (Aβ(−3-40))” value ([3]; 25 μM) was “decreased”. The “production amount of Aβ1-38” value ([3]; 25 μM) was “not decreased”, the “production amount of Aβ1-40” value ([3]; 25 μM) was “not decreased” and the “production amount of APP669-709 (Aβ(3-38))” value (APP stable HEK cells) was “decreased”. The “production amount of APP669-711 (Aβ(−3-40))” value (APP stable HEK cells) was “decreased”, the “production amount of Aβ1-38” value (APP stable HEK cells) was “not decreased” and the “production amount of Aβ1-40” value (APP stable HEK cells) was “not decreased”.
`COC(=O)N1CC2(CC2)C[C@H](C(=O)NO)[C@H]1C(=O)N1CC=C(c2ccccc2)CC1` [INCB3619] was tested, and the “production amount of APP669-709 (Aβ(3-38))” value [2, 5] was “rather slightly decreased”, the “production amount of APP669-711 (Aβ(−3-40))” value [2, 5] was “rather slightly decreased” and the “APP669 cleavage activity (on the N-terminal side)” value ([2]; 10 μM) was “low effect of decreasing”. For the same compound, the “production amount of APP669-709 (Aβ(3-38))” value ([3]; 10 μM) was “not changed” and the “production amount of APP669-711 (Aβ(−3-40))” value ([3]; 10 μM) was “not changed”.
